Test results published in patent US11339171B2, “MDM2 inhibitors” (Gan & Lee Pharmaceuticals, priority 2017, dated 2022).

Each molecule was assayed against T1, MDM2 (Homo sapiens, UniProt Q00987) (assay: Inhibition test of MDM2-P53 (GST-MDM2, Biotin-P53, Anti-GST-Tb, SA-XL665)). Conditions: not given.
T1 construct: made in house
Type: binding
Method: Experimental purpose: To determine the inhibitory activities of the compounds of the present invention on MDM2.
The present experiment uses the following assay methods/instruments/reagents:
Buffer: 1×PBS+0.1% BSA+5 mM DTT; MDM2 Buffer: Buffer+1 mM AEBSF
GST-MDM2: The final concentration is 4 nM, and it is required to formulate a 20 nM (5×) solution. A mother liquor is diluted by 3500 folds, wherein the mother liquor is 10-fold diluted first, and then 350-fold diluted.
Anti-GST-Tb: The final concentration is 2×, and a mother liquor is diluted by 50 folds.
MIX: GST-MDM2, Biotin-P53, SA-XL665 and Anti-GST-Tb were mixed according to a ratio of 4:4:5:5.
Sample: Preparation of a sample (10 mM in DMSO) solution: a. 3 μL sample+7 μL DMSO+20 μL DMSO were formulated to give an initial concentration of 1 mM and mixed well; b. in plate 1, twelve 5-fold serial dilutions (sequentially prepared by adding 10 μL of the last sample to 40 μL DMSO) were prepared and mixed well, individually; c. plate 2 was taken, 45 μL of Buffer was added to each well, and 5 μL of dilution at each concentration was taken from plate 1 and added to the corresponding well in plate 2 (the concentration in well 1 was 100 μM), and mixed well.
1. 18 μL of MIX was added to a 384-well plate, and centrifugation was performed at 4500 rpm for 5 min.
2. 2 μL of sample was added correspondingly to each well, the resultant was centrifuged at 25° C. and 4500 rpm for 5 min, and shaked at 25° C. for 90 min on a shaker.
Readings were obtained from the Microplate reader, and data was processed by Graphpad Prism 6.0.

T1 sequence (Q00987 whole entry): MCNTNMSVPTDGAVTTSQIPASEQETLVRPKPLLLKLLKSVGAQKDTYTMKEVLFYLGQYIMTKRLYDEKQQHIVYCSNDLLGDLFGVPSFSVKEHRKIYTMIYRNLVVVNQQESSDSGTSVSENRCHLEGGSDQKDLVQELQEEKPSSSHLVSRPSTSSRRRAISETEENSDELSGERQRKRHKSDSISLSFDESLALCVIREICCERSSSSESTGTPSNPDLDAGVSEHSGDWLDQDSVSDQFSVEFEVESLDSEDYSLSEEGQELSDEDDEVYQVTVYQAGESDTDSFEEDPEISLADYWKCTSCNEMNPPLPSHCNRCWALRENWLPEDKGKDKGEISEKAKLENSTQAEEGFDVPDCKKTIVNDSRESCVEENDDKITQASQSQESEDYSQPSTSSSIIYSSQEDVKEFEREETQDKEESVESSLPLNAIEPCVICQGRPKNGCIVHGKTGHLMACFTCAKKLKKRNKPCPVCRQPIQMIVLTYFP

SMILES | IC50 [nM]
COc1nc(C2CC2)ncc1-c1nc2c(n1C(C)C)[C@]1(C(=O)Nc3cc(Cl)ccc31)N(c1cccc(Cl)c1)C2=O [Example R-122, (R)-6-chloro-5′-(3-chlorophenyl)-2′-(2-cyclopropyl-4-methoxypyrimidin-5-yl)-3′-isopropyl-3′H-spiro[dihydroindole-3,4′-pyrrolo[3,4-d]imidazole]-2,6′(5′H)-dione] | 794
COc1cc(C2CC2)ccc1-c1nc2c(n1C(C)C)[C@]1(C(=O)Nc3cc(Cl)ccc31)N(c1cccc(Cl)c1)C2=O [Example R-116, (R)-6-chloro-5′-(3-chlorophenyl)-2′-(4-cyclopropyl-2-methoxyphenyl)-3′-isopropyl-3′H-spiro[dihydroindole-3,4′-pyrrolo[3,4-d]imidazole]-2,6′(5′H)-dione] | 689
CCc1ccc(OC)c(-c2nc3c(n2C(C)C)[C@]2(C(=O)Nc4cc(Cl)ccc42)N(c2cc(Cl)ccc2C)C3=O)c1 [Example R-37, (R)-6-chloro-5′-(5-chloro-2-methylphenyl)-2′-(5-ethyl-2-methoxyphenyl)-3′-isopropyl-3′H-spiro[dihydroindole-3,4′-pyrrolo[3,4-d]imidazole]-2,6′(5′H)-dione] | 3110
COc1nc(N2CCC2)ncc1-c1nc2c(n1C(C)C)[C@]1(C(=O)Nc3cc(Cl)ccc31)N(c1cc(Cl)ccc1C)C2=O [Example R-117, (R)-2′-(2-(12zetidine-1-yl)-4-methoxypyrimidin-5-yl)-6-chloro-5′-(5-chloro-2-methylphenyl)-3′-isopropyl-3′H-spiro[dihydroindole-3,4′-pyrrolo[3,4-d]imidazole]-2,6′(5′ H)-dione] | 233
COc1nc(C(C)C)ccc1-c1nc2c(n1C(C)C)[C@]1(C(=O)Nc3cc(Cl)ccc31)N(c1cc(Cl)ccc1C)C2=O [Example R-149, (R)-6-chloro-5′-(5-chloro-2-methylphenyl)-3′-isopropyl-2′-(6-isopropyl-2-methoxypyridin-3-yl)-3′H-spiro[dihydroindole-3,4′-pyrrolo[3,4-d]imidazole]-2,6′(5′H)-dione] | 2280
COc1cc(C(=O)N(C)C)ccc1-c1nc2c(n1C(C)C)[C@]1(C(=O)Nc3cc(Cl)ccc31)N(c1cc(Cl)ccc1C)C2=O [Example R-68, (R)-4-(6-chloro-5′-(5-chloro-2-methylphenyl)-3′-isopropyl-2,6′-dioxo-5′,6′-dihydro-3′H-spiro[dihydroindole-3,4′-pyrrolo[3,4-d]imidazole]-2′-yl)-3-methoxy-N,N-dimethylbenzamide] | 657
COc1cc(OCCF)ncc1-c1nc2c(n1C(C)C)[C@]1(C(=O)Nc3cc(Cl)ccc31)N(c1cc(Cl)cnc1C)C2=O [Example R-173, (R)-6-chloro-5′-(5-chloro-2-methylpyridin-3-yl)-2′-(6-(2-fluoroethoxy)-4-methoxypyridin-3-yl)-3′-isopropyl-3′H-spiro[dihydroindole-3,4′-pyrrolo[3,4-d]imidazole]-2,6′(5′H)-dione] | 528
COc1nc(N(C)C)ncc1-c1nc2c(n1C(C)C)[C@]1(C(=O)Nc3cc(Cl)ccc31)N(c1cccc(Cl)c1)C2=O [Example R-112, (R)-6-chloro-5′-(3-chlorophenyl)-2′-(2-(dimethylamino)-4-methoxypyrimidin-5-yl)-3′-isopropyl-3′H-spiro[dihydroindole-3,4′-pyrrolo[3,4-d]imidazole]-2,6′(5′H)-dione] | 104
COc1nc(OC(C)C)ncc1-c1nc2c(n1C(C)C)[C@]1(C(=O)Nc3cc(Cl)ccc31)N(c1cccc(Cl)c1)C2=O [Example R-124, (R)-6-chloro-5′-(3-chlorophenyl)-2′-(2-isopropoxy-4-methoxypyrimidin-5-yl)-3′-isopropyl-3′H-spiro[dihydroindole-3,4′-pyrrolo[3,4-d]imidazole]-2,6′(5′H)-dione] | 1310
COc1ccccc1-c1nc2c(n1C(C)C)[C@]1(C(=O)Nc3cc(Cl)ccc31)N(c1cc(Cl)cn(C)c1=O)C2=O [Example R-43, (R)-6-chloro-5′-(5-chloro-1-methyl-2-oxo-1,2-dihydropyridin-3-yl)-3′-isopropyl-2′-(2-methoxyphenyl)-3′H-spiro[dihydroindole-3,4′-pyrrolo[3,4-d]imidazole]-2,6′(5′H)-dione] | 130
CCOc1ccc(-c2nc3c(n2C(C)C)[C@]2(C(=O)Nc4cc(Cl)ccc42)N(c2cc(Cl)ccc2C)C3=O)c(OC)c1 [Example R-88, (R)-6-chloro-5′-(5-chloro-2-methylphenyl)-2′-(4-ethoxy-2-methoxyphenyl)-3′-isopropyl-3′H-spiro[dihydroindole-3,4′-pyrrolo[3,4-d]imidazole]-2,6′(5′H)-dione] | 399
COc1cc(OC(C)C)ncc1-c1nc2c(n1C(C)C)[C@]1(C(=O)Nc3cc(Cl)ccc31)N(c1cc(Cl)cnc1C)C2=O [Example R-137, (R)-6-chloro-5′-(5-chloro-2-methylpyridin-3-yl)-2′-(6-isopropoxy-4-methoxypyridin-3-yl)-3′-isopropyl-3′H-spiro[dihydroindole-3,4′-pyrrolo[3,4-d]imidazole]-2,6′(5′H)-dione] | 422
COc1cc(C(F)(F)F)ncc1-c1nc2c(n1C(C)C)[C@]1(C(=O)Nc3cc(Cl)ccc31)N(c1cccc(Cl)c1)C2=O [Example R-142, (R)-6-chloro-5′-(3-chlorophenyl)-3′-isopropyl-2′-(4-methoxy-6-(trifluoromethyl)pyridin-3-yl)-3′H-spiro[dihydroindole-3,4′-pyrrolo[3,4-d]imidazole]-2,6′(5′H)-dione] | 137
COc1ncc(-c2nc3c(n2C2CC2)[C@]2(C(=O)Nc4cc(Cl)ccc42)N(c2cc(Cl)ccc2C)C3=O)c(OC)n1 [Example R-28, (R)-6-chloro-5′-(5-chloro-2-methylphenyl)-3′-cyclopropane-2′-(2,4-dimethoxypyrimidin-5-yl)-3′H-spiro[dihydroindole-3,4′-pyrrolo[3,4-d]imidazole]-2,6′(5′H)-dione] | 3110
COc1ncc(-c2nc3c(n2C(C)C)[C@]2(C(=O)Nc4cc(Cl)ccc42)N(c2cc(Cl)ccc2C#N)C3=O)c(OC)n1 [Example R-151, (R)-4-chloro-2-(6-chloro-2′-(2,4-dimethoxypyrimidin-5-yl)-3′-isopropyl-2,6′-dioxo-3′,6′-dihydro-5′H-spiro[dihydroindole-3,4′-pyrrolo[3,4-d]imidazole]-5′-yl)benzonitrile] | 5370

Same assay, conditions: labels are Example numbers; the compounds with S-configuration are meant

SMILES | inhibitory effect on MDM2 compared with positive control compound HDM201
COc1cc(C(N)=O)ccc1-c1nc2c(n1C(C)C)C1(C(=O)Nc3cc(Cl)ccc31)N(c1cc(Cl)ccc1C)C2=O (stereo not drawn) [Example 77, 4-(6-chloro-5′-(5-chloro-2-methylphenyl)-3′-isopropyl-2,6′-dioxo-5′,6′-dihydro-3′H-spiro[dihydroindole-3,4′-pyrrolo[3,4-d]imidazole]-2′-yl)-3-methoxybenzamide] | better
COc1nc(OCCF)ncc1-c1nc2c(n1C(C)C)C1(C(=O)Nc3cc(Cl)ccc31)N(c1cc(Cl)ccc1C)C2=O (stereo not drawn) [Example 140, 6-chloro-5′-(5-chloro-2-methylphenyl)-2′-(2-(2-fluoroethoxy)-4-methoxypyrimidin-5-yl)-3′-isopropyl-3′H-spiro[dihydroindole-3,4′-pyrrolo[3,4-d]imidazole]-2,6′(5′H)-dione] | better
COc1nc(N(C)C)ncc1-c1nc2c(n1C(C)C)C1(C(=O)Nc3cc(Cl)ccc31)N(c1cccc(Cl)c1)C2=O (stereo not drawn) [Example 112, 6-chloro-5′-(3-chlorophenyl)-2′-(2-(dimethylamino)-4-methoxypyrimidin-5-yl)-3′-isopropyl-3′ H-spiro[dihydroindole-3,4′-pyrrolo[3,4-d]imidazole]-2,6′ (5′ H)-dione] | better
COc1cc(N(C)C)ncc1-c1nc2c(n1C(C)C)C1(C(=O)Nc3cc(Cl)ccc31)N(c1cc(Cl)ccc1C)C2=O (stereo not drawn) [Example 111, 6-chloro-5′-(5-chloro-2-methylphenyl)-2′-(6-(dimethylamino)-4-methoxypyridin-3-yl)-3′-isopropyl-3′H-spiro[dihydroindole-3,4′-pyrrolo[3,4-d]imidazole]-2,6′(5′H)-dione] | better
COc1ccc(-c2nc3c(n2C(C)C)C2(C(=O)Nc4cc(Cl)ccc42)N(c2cc(Cl)c(=O)n(C)c2)C3=O)c(OC)c1 (stereo not drawn) [Example 52, 6-chloro-5′-(5-chloro-1-methyl-6-oxo-1,6-dihydropyridin-3-yl)-2′-(2,4-dimethoxyphenyl)-3′-isopropyl-3′H-spiro[dihydroindole-3,4′-pyrrolo[3,4-d]imidazole]-2,6′(5′H)-dione] | better
COc1cc(C(F)(F)F)ncc1-c1nc2c(n1C(C)C)C1(C(=O)Nc3cc(Cl)ccc31)N(c1cc(Cl)cnc1C)C2=O (stereo not drawn) [Example 152, 6-chloro-5′-(5-chloro-2-methylpyridin-3-yl)-3′-isopropyl-2′-(4-methoxy-6-(trifluoromethyl)pyridine-3-yl)-3′H-spiro[dihydroindole-3,4′-pyrrolo[3,4-d]imidazole]-2,6′(5′H)-dione] | better
